Tests used:
[1] = tested on: interaction of proteoglycan units with collagen; conditions: column of Sepharose 4B-collagen loaded with proteoglycan subunits; cited from earlier work
[2] = target: T1, alkaline phosphatase produced from cartilage (Homo sapiens, UniProt P05186); conditions: cited from earlier work
T1 sequence (P05186 18-501): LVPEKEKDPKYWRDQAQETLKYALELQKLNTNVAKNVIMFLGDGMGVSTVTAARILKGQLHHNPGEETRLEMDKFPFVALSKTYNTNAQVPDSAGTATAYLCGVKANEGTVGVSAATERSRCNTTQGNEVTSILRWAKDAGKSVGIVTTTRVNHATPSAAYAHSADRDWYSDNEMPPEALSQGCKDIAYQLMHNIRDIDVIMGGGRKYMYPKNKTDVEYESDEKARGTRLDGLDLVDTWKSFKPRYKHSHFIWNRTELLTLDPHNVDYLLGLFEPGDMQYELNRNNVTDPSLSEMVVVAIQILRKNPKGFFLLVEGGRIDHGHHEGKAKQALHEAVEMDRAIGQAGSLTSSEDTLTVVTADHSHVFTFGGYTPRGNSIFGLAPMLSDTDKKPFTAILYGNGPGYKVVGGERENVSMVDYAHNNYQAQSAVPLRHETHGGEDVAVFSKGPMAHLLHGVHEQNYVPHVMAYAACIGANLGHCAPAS

spermidine synthase [3] = target: T2, spermidine synthase (Homo sapiens, UniProt P19623); experiment: Activity measurement of spermidine synthase by HTRF; type: biochemical; conditions: measured by HTRF; read-out: IC50 value, inhibition of MTA production by SPDS
T2 construct: Human SPDS gene was amplified by PCR, inserted into an entry vector pENTR11; made in house; host or cells: HEK293 cells (transient transfection, Lipofectamine 2000)
T2 sequence (P19623 1-302): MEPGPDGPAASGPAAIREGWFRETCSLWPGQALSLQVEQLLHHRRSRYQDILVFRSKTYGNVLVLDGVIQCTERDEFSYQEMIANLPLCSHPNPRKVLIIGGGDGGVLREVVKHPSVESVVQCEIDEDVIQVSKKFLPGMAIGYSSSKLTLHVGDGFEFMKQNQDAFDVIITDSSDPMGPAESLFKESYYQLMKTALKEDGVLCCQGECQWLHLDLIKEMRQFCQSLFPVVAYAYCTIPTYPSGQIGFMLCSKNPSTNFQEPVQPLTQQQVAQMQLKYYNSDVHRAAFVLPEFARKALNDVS
Description: 10 μL of spermidine synthase diluted with buffer C was added into 384-well assay plate (black, Corning). Then, to the plate was added 10 μl of the above substrate mixture, and reaction was conducted at room temperature. […] Then, each well was added with 20 μl of europium cryptate-labeled anti-MTA-7H8 antibody made to 288 ng/ml with buffer D, and the mixture was reacted for 16 hours at room temperature. Fluorescence of each well was measured by Rubyster (BMG Labtechnologis). An amount of MTA in each well was calculated from a standard curve, and converted to an amount of MTA per an enzyme amount and a reaction time, which was an enzyme activity. In FIG. 4, open circles represent reactivity to dcSAM and filled circles represent reactivity to MTA. […] It was confirmed that a production amount of MTA was increased depending on a concentration of spermidine synthase and a reaction time. […] By detecting a production amount of MTA according to the present method, an inhibition effect of the test substance was measured.

spermidine synthase [4] = target: T2, spermidine synthase; experiment: Activity measurement of spermidine synthase by ELISA; type: biochemical; conditions: measured by ELISA; read-out: IC50 value, inhibition of MTA production by SPDS
Description: The amount of MTA in each well was calculated from the competitive curve described above, and the produced amount of MTA per an enzyme amount and a reaction time was determined to be defined as an enzyme activity. It was confirmed that a production amount of MTA was increased depending on a concentration of spermidine synthase and a reaction time. […] Pharma., 1991.). […] By detecting a production amount of MTA according to the present method, an inhibition effect of the test substance was measured.

spermidine synthase [5] = conditions: Shirahata et al., Biochem. Pharma., 1991; read-out: IC50 value in a publication; cited from earlier work

Compound | capacity of displacing proteoglycan subunits from the column [1] | effect on activity of alkaline phosphatase produced from cartilage [2] | proteoglycan subunits removed from the column [1] | IC50 (spermidine synthase [3]) | IC50 (spermidine synthase [4]) | IC50 (spermidine synthase [5])
NCCCCN [putrescine] | without effect |  |  |  |  | 
NCCCNCCCCNCCCN [spermine] | without effect | increased the activity |  |  |  | 
NCCCCNCCCN [spermidine] | showed the capacity of displacing proteoglycan subunits | increased the activity | about 90% |  |  | 
CC1CCC(N)CC1 (stereo not drawn) [4-methylcyclohexylamine] |  |  |  | 1100 nM | 1000 nM | 1700 nM

Reference: patent US20070280946A1, “Antibody to 5' -Deoxy-5' - Methylthioadenosine And Uses Thereof” (priority 2004, published 2007)
